Blank lines part the entries; values can stand above or below the molecule they belong to.
Assays:
[1] = tested on: generation of HHT in rat platelets; experiment: Inhibitory effect on the generation of 12-hydroxyheptadeca-5,8,10-trienoic acid (HHT) in rat platelets; type: cell-based; details: rat platelet rich plasma; for inhibition at 100 µM: 10^-4 M; for inhibition at 10 µM: 10^-5 M
Experimental: Blood was collected in 3.2 v/v % sodium citrate (0.8 ml for 7.2 ml of blood) from the abdominal aorta of male Wister rats (Jcl, 12 to 15 weeks) anesthesized with pentobarbital. Platelet rich plasma (PRP) was obtained by centrifuging the blood at 800 rpm for 10 min at room temperature. Platelet poor plasma (PPP) was prepared by centrifuging the remaining blood at 3,000 rpm for 10 min. The platelet concentration of PRP was adjusted to 1,000,000/μl with PPP. […]
The reaction was stopped by adding 100 ml of ethanol and the mixture was allowed to stand for 10 min. at room temperature. The reaction mixture was centrifuged at 2,000 rpm for 10 min. and the supernatant obtained was evaporated. To the concentrate, 0.2 ml of 60 v/v % aqueous ethanol was added.
100 μl of this solution was subjected to high performance liquid chromatography for quantitative analysis of HHT. The amount of HHT was determined by measurement of absorbance at 237 nm with a UV absorption monitor.
The inhibitory effect (IE) on the generation of HHT is expressed by (1-b/a)×100, wherein a is the peak height or the peak area corrected with the peak due to the internal standard in the absence of the compound (I) or a pharmaceutically acceptable salt thereof, and b is the peak height or the peak area corrected with the peak due to the internal standard in the compound (I) or a pharmaceutically acceptable salt thereof.

[2] = tested on: lipid peroxide production in rat brain homogenates; experiment: Inhibitory action on lipid peroxide production in rat brain homogenates; type: biochemical; details: 5 v/v % rat brain homogenate, pH 7.4, 1 hour at 37° C.; read-out: Inhibition (IC50) of lipid peroxide production
Experimental: The male SD rat (12 weeks) brain tissue was extracted under anesthesia after depletion. The extracted brain tissue was used as 5 v/v % homogenate in phosphate buffer (pH 7.4). After incubation of the homogenate for 1 hour at 37° C., the peroxide produced was determined by the thiobarbituric acid method according to the method described in Analytical Biochemistry, 95, 551 (1979).
Before incubation, test compounds were added in 5 v/v % homogenate so that their final concentration becomes 10^-5 M. […]

5-lipoxygenase = biological target: T1, 5-lipoxygenase (Rattus norvegicus, UniProt P12527); experiment: Inhibition of 5-lipoxygenase (5-HETE production in RBL-1 cells); type: cell-based; details: for inhibition at 1 µM: 10^-6 M; for inhibition at 0.1 µM: 10^-7 M; for inhibition at 0.01 µM: 10^-8 M
T1 construct: endogenous in cells; host or cells: RBL-1 (rat basophilic leukemia cells)
T1 sequence (P12527 1-673): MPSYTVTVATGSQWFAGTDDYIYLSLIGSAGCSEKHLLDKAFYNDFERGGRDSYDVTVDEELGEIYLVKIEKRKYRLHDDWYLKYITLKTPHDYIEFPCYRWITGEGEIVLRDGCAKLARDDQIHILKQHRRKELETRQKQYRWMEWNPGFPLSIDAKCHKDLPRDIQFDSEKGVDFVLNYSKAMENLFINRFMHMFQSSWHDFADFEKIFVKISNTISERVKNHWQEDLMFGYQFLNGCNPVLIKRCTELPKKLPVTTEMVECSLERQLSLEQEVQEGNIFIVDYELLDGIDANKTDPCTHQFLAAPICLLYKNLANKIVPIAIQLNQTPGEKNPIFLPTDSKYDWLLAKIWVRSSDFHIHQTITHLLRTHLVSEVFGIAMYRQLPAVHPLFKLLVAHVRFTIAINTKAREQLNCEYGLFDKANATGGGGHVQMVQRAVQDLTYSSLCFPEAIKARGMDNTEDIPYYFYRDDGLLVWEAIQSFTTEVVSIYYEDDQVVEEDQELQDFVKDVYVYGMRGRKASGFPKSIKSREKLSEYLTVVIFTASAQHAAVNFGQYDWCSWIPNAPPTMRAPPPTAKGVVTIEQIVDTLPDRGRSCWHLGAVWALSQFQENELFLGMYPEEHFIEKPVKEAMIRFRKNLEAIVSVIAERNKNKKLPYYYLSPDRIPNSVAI
Experimental: 10^7 RBL-1 cells (rat basophilic leukemia cells) were suspended in 0.5 ml of MCM (mast cell medium). […] Then 4 ml of ethanol was added, and the mixture was well shaken and kept at room temperature for 10 min.
The mixture was centrifuged for 10 min. (2000 rpm), and the supernatant was separated. The supernatant obtained was concentrated to dryness under reduced pressure. To the residue 0.5 ml of 60 v/v % aqueous methanol was added. One hundred μl of this solution was subjected to high performance liquid chromatography for quantitative analysis of 5-HETE (5-hydroxyeicosatetraenoic acid). The amount of 5-HETE was determined by measurement of the absorbance at 237 nm with a UV absorption monitor.
The inhibitory effect (IE) of production of 5-HETE is expressed by (1-b/a)×100, wherein a is the peak height or the area corrected with the peak due to the internal standard in the absence of the compound (I) or a pharmaceutically acceptable salt thereof, and b is the peak height or peak area corrected with the peak due to the internal standard in the presence of the compound (I) or a pharmaceutically acceptable salt thereof.

[3] = tested on: excitatory behavior induced by FeCl2 in mice; experiment: Excitatory behavior induced by spinal intrathecal injection of FeCl2 in mice; type: in vivo, mouse; details: 100 mg/kg p.o.
Experimental: Male Slc:ICP mice (5 weeks) were used. Each group consisted of 10 mice. 5 μl of 50 mM FeCl2 in saline was injected into spinal subarchnoid space betwen the 1st sacral and the 6th lumbar segment, the behavioral responses were observed from 15 min. to 1 hr. after the intrathecal injection of FeCl2 and scored as follows.
Score Behavioral responses
0: normal (no abnormal behavior)
1: vigorously biting lower abdomen or lower extremities
(a) extremely biting lower body with rolling
(b) hyperreactivity and agressive to external stmuli
at least one of above three behavioral changes were observed
4: tonic convulsion or paralysis of lower extremities.
The test compounds (100 mg/kg) were orally administered 30 min. prior to FeCl2 injection.

[4] = tested on: neurological deficits in rats with cerebral ischemia; experiment: Neurological deficits in rats with experimental cerebral ischemia; type: in vivo, rat; details: p.o.
Experimental: Male Crj:Wistar rats, that were 7 weeks old at the time of electocauterization of the bilateral vertebral arteries, were used. Electrocauterization of the bilateral vertebral arteries was performed under pentobarbital Na (40 mg/kg, i.p.) anesthesia. Global cerebral ischemia was produced by 20 min. occlusion of both common carotid arteries 24 hr after the permanent electrocauterization of the bilateral vertebral arteries (Pulsinelli W. A. and Brierly J. B., Stroke 10, 267-272 (1979).
The compound of Example 20 was given orally as a single dose immediately after the reperfusion of both carotid arteries.
1; decrease in spontaneous motor activity, piloerection, ptosis, miosis, hyperirritability, slight ataxia
2; moderate to servere ataxia
3; loss of righting reflex, slight convulsions
4; severe convulsions, coma
The median neurological deficit scores of the drug-treated groups were compared with that of saline-treated control. Statistical analysis was done using the Mann-Whitney U-test.

[5] = tested on: urinary incontinence in rats with spinal cord compression; experiment: Incidence of rats showing urinary incontinence (spinal cord compression); type: in vivo, rat; design: Incidence of rats showing urinary incontinence: unit not given here; details: 40 mg/kg, p.o.
Description: (§1) Male Jcl:Wistar rats, weighing about 350 g at the time of spinal cord compression were used. A spinal cord injury was produced in rats by compressing the spinal cord with a stainless screw of 2.8 mm length and 2 mm diameter at thoracic 11 (T11) level under pentobarbital anesthesia. On the day of the operation, the screw was placed so that the end was just above the subarachnoid membrane of the spinal cord.
(§2) On the following day, the screw was completely tightened to compress the spinal cord without penetrating the subarachnoid membrane. After compression of the spinal cord for 60 min., the screw was removed. Test compounds were given orally 5 min. after the removal of screw.
(§3) The median neurological score of the drug-treated groups were compared with that saline-teated control group. Statistical analysis was done using the Mann-Whitney U-test. The incidence of rats showing urinary incontinence was also compared by the .chi.^2 -test.

[6] = tested on: neurological deficits caused by spinal cord compression in rats; experiment: Functional neurologic impairment induced by spinal cord compression in rats; type: in vivo, rat; details: 40 mg/kg, p.o.
Description: as §1, §2
0; flaccid paralysis, no movement of hind limbs, no response to pinching of tail with foreceps (i.e. movement of fore limbs, biting foreceps, vocalization)
1; no movement of hind limbs, but responds to pinching of tail with foreceps
2; uncoordinated movement (loss of coordination between limbs), but can not support own weight
3; movement with an impairment (general coordination between limbs), but can not support own weight
4; walking with a slight ataxia of the hind limbs, but can support own weight
as §3

[7] = day 3, Ex. 7 *p < 0.05, Ex. 20 **p < 0.01

Structure (SMILES): Cc1c(C)c2c(c(C)c1O)C(c1ccccn1)C(C)(C)O2 (stereo not drawn) [Example 4]
inhibition at 100 µM [1]: 29%
inhibition at 10 µM [1]: 9%
IC50 [2]: 0.25 µM
inhibition at 1 µM (5-lipoxygenase): 98%
inhibition at 0.1 µM (5-lipoxygenase): 18%
inhibition at 0.01 µM (5-lipoxygenase): 0%

Structure (SMILES): Cc1c2c(c3ccccc3c1O)OC(C)(C)C2c1cccnc1 (stereo not drawn) [Example 5]
inhibition at 100 µM [1]: 84%
inhibition at 10 µM [1]: 54%
IC50 [2]: 0.12 µM
inhibition at 1 µM (5-lipoxygenase): 99%
inhibition at 0.1 µM (5-lipoxygenase): 22%
inhibition at 0.01 µM (5-lipoxygenase): 0%

Structure (SMILES): Cc1c(C)c2c(c(C)c1O)C(c1ccccc1)C(C)(C)O2 (stereo not drawn) [Example 6, 5-hydroxy-2,2,4,6,7-pentamethyl-3-phenyl-2,3-dihydrobenzofuran]
inhibition at 100 µM [1]: 49%
inhibition at 10 µM [1]: 7%
IC50 [2]: 0.13 µM
inhibition at 1 µM (5-lipoxygenase): 92%
inhibition at 0.1 µM (5-lipoxygenase): 18%
inhibition at 0.01 µM (5-lipoxygenase): 0%

Structure (SMILES): Cc1c(C)c2c(c(C)c1O)C(c1ccc(Br)cc1)C(C)(C)O2 (stereo not drawn) [Example 11]
Score (mean behavioral score) ([3]; 30 min. prior to FeCl2, 0 normal to 5 death): 0.7
Percent inhibition (of mean score) ([3]; vs vehicle p.o.): 84%

Structure (SMILES): Cc1c(C)c2c(c(C)c1O)C(c1ccc(C(C)C)cc1)C(C)(C)O2 (stereo not drawn) [Example 20, 5-hydroxy-2,2,4,6,7-pentamethyl-3-(4-isopropylphenyl)-2,3-dihydrobenzofuran]
neurological deficit score (median value) ([4]; 10 mg/kg, day 1, 0 normal to 5 death): 2
neurological deficit score (median value) ([4]; 10 mg/kg, day 2): 2
neurological deficit score (median value) ([4]; 10 mg/kg, day 3, *p < 0.05): 1.5
neurological deficit score (median value) ([4]; 10 mg/kg, day 5, **p < 0.01): 1
neurological deficit score (median value) ([4]; 10 mg/kg, day 7, *p < 0.05): 1
neurological deficit score (median value) ([4]; 10 mg/kg, day 10, **p < 0.01): 0
neurological deficit score (median value) ([4]; 10 mg/kg, day 14): 0
neurological deficit score (median value) ([4]; 40 mg/kg, day 1, 0 normal to 5 death): 2
neurological deficit score (median value) ([4]; 40 mg/kg, day 2): 2
neurological deficit score (median value) ([4]; 40 mg/kg, day 3, **p < 0.01): 1
neurological deficit score (median value) ([4]; 40 mg/kg, day 5, **p < 0.01): 1
neurological deficit score (median value) ([4]; 40 mg/kg, day 7, *p < 0.05): 1
neurological deficit score (median value) ([4]; 40 mg/kg, day 10, *p < 0.05): 0
neurological deficits caused by transient cerebral ischemia (in words) ([4]; 10 and 40 mg/kg): significantly ameliorated the neurological deficits
Incidence of rats showing urinary incontinence ([5]; day 1, Ex. 20 **p < 0.01): 0
Incidence of rats showing urinary incontinence ([5]; day 2, Ex. 20 **p < 0.01): 0
Incidence of rats showing urinary incontinence [5, 7]: 0
Incidence of rats showing urinary incontinence ([5]; day 5, Ex. 20 **p < 0.01): 0
Incidence of rats showing urinary incontinence ([5]; day 7, Ex. 7 *p < 0.05): 7.1
Incidence of rats showing urinary incontinence ([5]; day 10): 7.1
Incidence of rats showing urinary incontinence ([5]; day 14): 7.1
incidence of urinary incontinence (in words) ([5]; Table 4(IV)): reduced the incidence of urinary incontinence
IC50 [2]: 0.025 µM
neurological score (median value) ([6]; day 1, 0 flaccid paralysis to 5 normal gait, Ex. 20 **p < 0.01): 2
neurological score (median value) [6, 7]: 3
neurological score (median value) ([6]; day 7, Ex. 20 **p < 0.01): 4
neurological score (median value) ([6]; day 14, Ex. 20 *p < 0.05): 4
neurological impairment caused by spinal cord compression (in words) ([6]; Table 4(III)): ameliorated the neurological impairment
inhibition at 1 µM (5-lipoxygenase): 100%
inhibition at 0.1 µM (5-lipoxygenase): 42%
inhibition at 0.01 µM (5-lipoxygenase): 36%

Second part, led by results:

IC50 [2]: 0.22 µM
inhibition at 1 µM (5-lipoxygenase): 89%
inhibition at 0.1 µM (5-lipoxygenase): 57%
inhibition at 0.01 µM (5-lipoxygenase): 16%
Structure (SMILES): Cc1c(C)c2c(c(C)c1O)C(c1cccnc1)C(C)(C)O2 (stereo not drawn) [Example 1, 5-hydroxy-2,2,4,6,7-pentamethyl-3-(3-pyridyl)-2,3-dihydrobenzofuran]
inhibition at 100 µM [1]: 76%
inhibition at 10 µM [1]: 47%

IC50 [2]: 0.75 µM
inhibition at 1 µM (5-lipoxygenase): 91%
inhibition at 0.1 µM (5-lipoxygenase): 70%
inhibition at 0.01 µM (5-lipoxygenase): 18%
Structure (SMILES): Cc1c(C)c2c(c(C)c1O)C(c1cccnc1)C1(CCCC1)O2 (stereo not drawn) [Example 2]
inhibition at 100 µM [1]: 79%
inhibition at 10 µM [1]: 52%

IC50 [2]: 0.15 µM
inhibition at 1 µM (5-lipoxygenase): 91%
inhibition at 0.1 µM (5-lipoxygenase): 64%
inhibition at 0.01 µM (5-lipoxygenase): 20%
Structure (SMILES): Cc1c(C)c2c(c(C)c1O)C(c1cccnc1)C1(CCCCC1)O2 (stereo not drawn) [Example 3, 5-hydroxy-4,6,7-trimethyl-3-(3-pyridyl)-3H-benzofuran-2-spirocyclohexane]
inhibition at 100 µM [1]: 40%
inhibition at 10 µM [1]: 7%
